Results published in patent publication US11384062B2 (CombiPhos Catalysts, Inc., priority 2017, dated 2022).

What was measured:
786-0 = settings: 10 μM single dose; Renal Cancer 786-0
Source text: (§1) The test compounds were screened for anticancer activity at the Development Therapeutic Program (DTP), National Cancer Institute (NCI), USA, against a full NCI 59 cell line panel (six cell lines of leukemia, nine cell lines of lung cancer, seven cell lines of colon cancer, six cell lines of CNS cancer, nine cell lines of melanoma, seven cell lines of ovarian cancer, seven cell lines of renal cancer, two cell lines of prostate cancer, and six cell lines of breast cancer) representing nine human systems in total as leukemia, melanoma, and cancers of the lungs, colon, brain, breast, ovary, kidney, and prostate, according to the applied protocol. A primary in vitro one dose anticancer assay was performed at a single dose (10 μM) against the full NCI 59 cell line panel. The one dose data was reported as a mean graph of the percent growth of treated cells. The number reported for the single dose assay was growth relative to the no drug control and relative to the initial number of cells at time 0. […] A value of −40 means 40% lethality. A value of −100 means all cells are dead.

A498 = settings: 10 μM single dose; Renal Cancer A498
Source text: as §1

A549/ATCC = settings: 10 μM single dose; Non-Small Cell Lung Cancer A549/ATCC
Source text: as §1

BT-549 = settings: 10 μM single dose; Breast Cancer BT-549
Source text: as §1

HCC-2998 = settings: 10 μM single dose; Colon Cancer HCC-2998
Source text: as §1

HCT-15 = settings: 10 μM single dose; Colon Cancer HCT-15
Source text: as §1

HOP-62 = settings: 10 μM single dose; Non-Small Cell Lung Cancer HOP-62
Source text: as §1

HT29 = settings: 10 μM single dose; Colon Cancer HT29
Source text: as §1

IGROV1 = settings: 10 μM single dose; Ovarian Cancer IGROV1
Source text: as §1

MALME-3M = settings: 10 μM single dose; Melanoma MALME-3M
Source text: as §1

MDA-MB-468 = settings: 10 μM single dose; Breast Cancer MDA-MB-468
Source text: as §1

MOLT-4 = settings: 10 μM single dose; Leukemia MOLT-4
Source text: as §1

NCI-H522 = settings: 10 μM single dose; Non-Small Cell Lung Cancer NCI-H522
Source text: as §1

NCI/ADR-RES = settings: 10 μM single dose; Ovarian Cancer NCI/ADR-RES
Source text: as §1

OVCAR-5 = settings: 10 μM single dose; Ovarian Cancer OVCAR-5
Source text: as §1

RPMI-8226 = settings: 10 μM single dose; Leukemia RPMI-8226
Source text: as §1

RXF 393 = settings: 10 μM single dose; Renal Cancer RXF 393
Source text: as §1

SK-MEL-28 = settings: 10 μM single dose; Melanoma SK-MEL-28
Source text: as §1

SNB-75 = settings: 10 μM single dose; CNS Cancer SNB-75
Source text: as §1

SR = settings: 10 μM single dose; Leukemia SR
Source text: as §1

SW-620 = settings: 10 μM single dose; Colon Cancer SW-620
Source text: as §1

TK-10 = settings: 10 μM single dose; Renal Cancer TK-10
Source text: as §1

SMILES | Growth Percentage (786-0) | Growth Percentage (A498) | Growth Percentage (A549/ATCC) | Growth Percentage (BT-549) | Growth Percentage (HCC-2998) | Growth Percentage (HT29) | Growth Percentage (IGROV1) | Growth Percentage (MALME-3M) | Growth Percentage (MDA-MB-468) | Growth Percentage (MOLT-4) | Growth Percentage (NCI-H522) | Growth Percentage (NCI/ADR-RES) | Growth Percentage (OVCAR-5) | Growth Percentage (RPMI-8226) | Growth Percentage (RXF 393) | Growth Percentage (SK-MEL-28) | Growth Percentage (SNB-75) | Growth Percentage (SR) | Growth Percentage (SW-620) | Growth Percentage (TK-10) | further results
[2H]c1c([2H])c(-n2nc3c(C(N)=O)cccc3c2[2H])c([2H])c([2H])c1C1CCCNC1 (racemic) [Example 11, 2-(4-(piperidin-3-yl)phenyl-2,3,5,6-d4)-2H-indazole-3-d-7-carboxamide] | 97.43% | 83.22% | 70.16% | 91.44% | 80.10% | 87.71% | 74.29% | 92.14% | 87.13% | 71.06% | 89.79% | 89.85% | 89.69% | 78.32% | 107.27% | 101.33% | 76.35% | 37.42% | 72.01% | 102.70% | Growth Percentage (HCT-15): 85.76%; Growth Percentage (HOP-62): 94.55%
[2H]C1([2H])NC([2H])([2H])C([2H])(c2ccc(-n3cc4cccc(C(N)=O)c4n3)cc2)C([2H])([2H])C1([2H])[2H] (racemic) [Example 3, 2-(4-(piperidin-3-yl-2,2,3,4,4,5,5,6,6-d9)phenyl)-2H-indazole-7-carboxamide] | 103.31% | 90.94% | 67.74% | 113.02% | 88.49% | 93.28% | 83.23% | 91.23% | 109.78% | 86.53% | 83.10% | 97.76% | 100.56% | 87.86% | 111.56% | 107.36% | 76.50% | 59.44% | 84.69% | 98.41% | Growth Percentage (HCT-15): 100.98%; Growth Percentage (HOP-62): 93.86%
[2H]c1c([2H])c(C2([2H])C([2H])NC([2H])C([2H])C2[2H])c([2H])c([2H])c1-n1cc2cccc(C(N)=O)c2n1 (stereo not shown) [Example 4, 2-(4-(piperidin-3-yl-2,3,4,5,6-d5)phenyl-2,3,5,6-d4)-2H-indazole-7-carboxamide] | 92.79% | 89.03% | 67.08% | 99.58% | 83.97% | 77.66% | 73.75% | 79.53% | 86.59% | 78.10% | 87.37% | 84.74% | 89.23% | 90.85% | 102.74% | 98.37% | 70.09% | 47.47% | 72.23% | 96.15% | –
